Legend:
Type in all cases: biochemical
SMOX = biological target: T1, SMOX (Homo sapiens, UniProt Q9NWM0); test: Mechanism of inhibition and enzyme kinetics (Lineweaver–Burk, global fit)
T1 construct: using 0.3 µg/mL of purified SMOX enzyme and 2 mM of spermine substrate
Experimental: The mechanism of enzyme inhibition was determined using the HRP-luminol coupled enzyme assay described above. Reaction velocity (max RLU/sec over 10 min) was measured across multiple substrate and inhibitor concentrations, and individual triplicate values were plotted using a Lineweaver–Burk transformation (double-reciprocal) in GraphPad Prism 9.3 software (Graph-Pad, San Diego, CA, USA).

recombinant human MAO-A = biological target: T2, recombinant human MAO-A (Homo sapiens, UniProt P21397); test: MAO-Glo assay, MAO-A; settings: read-out: % Inhibition at 20 μM ± SD, MAO-A
T2 construct: purchased Sigma-Aldrich M7316-1VL
T2 sequence (P21397 1-527): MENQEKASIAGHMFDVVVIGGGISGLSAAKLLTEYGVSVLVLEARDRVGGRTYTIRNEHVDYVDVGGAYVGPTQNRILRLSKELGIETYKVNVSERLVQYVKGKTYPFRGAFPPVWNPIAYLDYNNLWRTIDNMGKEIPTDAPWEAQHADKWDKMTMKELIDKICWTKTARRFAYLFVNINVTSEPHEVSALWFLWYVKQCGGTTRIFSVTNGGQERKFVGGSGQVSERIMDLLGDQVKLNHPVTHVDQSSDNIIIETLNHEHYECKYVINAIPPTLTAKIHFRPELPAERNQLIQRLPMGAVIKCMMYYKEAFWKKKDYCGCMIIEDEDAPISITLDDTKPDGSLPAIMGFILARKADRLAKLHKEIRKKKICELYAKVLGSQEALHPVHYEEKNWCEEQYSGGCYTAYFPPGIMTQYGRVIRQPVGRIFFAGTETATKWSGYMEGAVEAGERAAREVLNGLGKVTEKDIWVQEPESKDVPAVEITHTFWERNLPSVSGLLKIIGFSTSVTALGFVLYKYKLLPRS
Experimental: (§1) To determine selectivity, the compounds were tested for activity against the related FAD-dependent amine oxidase enzymes LSD1, MAO-A, and MAO-B. LSD1 activity was assessed using a commercially available assay kit (#700120, Cayman Chemical, Ann Arbor, MI, USA), in which the enzyme activity was determined by the horseradish peroxidase-catalyzed oxidation of 10-acetyl-3,7-dihydroxyphenoxazine to the highly fluorescent resorufin in response to H2O2 production. Monoamine oxidase activity was determined using recombinant human MAO-A and MAO-B (M7316-1VL & M7441-1VL, Sigma-Aldrich, St. Louis, MO, USA) and a commercially available assay kit (#V1401, MAO-Glo, Promega, Madison, WI, USA), which utilizes the MAO-catalyzed oxidation of a luciferin derivative coupled with esterase activity to produce luminescence. Fluorescent and luminescent readout was obtained using a SpectraMax M5 plate reader (Molecular Devices) equipped with SOFTmax PRO 7.0.3 software. […] Values were reported as mean % inhibition ± SD of triplicate assay wells normalized to background activity and compared to the vehicle control.

recombinant human MAO-B = biological target: T3, recombinant human MAO-B (Homo sapiens, UniProt P27338); test: MAO-Glo assay, MAO-B; settings: read-out: % Inhibition at 20 μM ± SD, MAO-B
T3 construct: purchased Sigma-Aldrich M7441-1VL
T3 sequence (P27338 1-520): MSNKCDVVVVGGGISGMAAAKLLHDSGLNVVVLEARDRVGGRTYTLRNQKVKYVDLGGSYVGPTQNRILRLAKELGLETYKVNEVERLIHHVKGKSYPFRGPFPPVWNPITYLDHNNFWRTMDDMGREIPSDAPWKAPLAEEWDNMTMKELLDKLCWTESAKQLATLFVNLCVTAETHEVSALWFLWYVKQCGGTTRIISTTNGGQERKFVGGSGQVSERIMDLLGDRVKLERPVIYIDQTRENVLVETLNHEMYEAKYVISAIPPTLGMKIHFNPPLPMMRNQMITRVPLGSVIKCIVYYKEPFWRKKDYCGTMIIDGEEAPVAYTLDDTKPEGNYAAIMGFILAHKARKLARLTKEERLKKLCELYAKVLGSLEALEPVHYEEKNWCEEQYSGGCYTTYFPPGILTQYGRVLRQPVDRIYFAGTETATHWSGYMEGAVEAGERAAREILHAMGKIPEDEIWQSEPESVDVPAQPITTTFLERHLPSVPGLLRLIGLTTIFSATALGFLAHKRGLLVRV
Experimental: as §1

T1 sequence (Q9NWM0 whole entry): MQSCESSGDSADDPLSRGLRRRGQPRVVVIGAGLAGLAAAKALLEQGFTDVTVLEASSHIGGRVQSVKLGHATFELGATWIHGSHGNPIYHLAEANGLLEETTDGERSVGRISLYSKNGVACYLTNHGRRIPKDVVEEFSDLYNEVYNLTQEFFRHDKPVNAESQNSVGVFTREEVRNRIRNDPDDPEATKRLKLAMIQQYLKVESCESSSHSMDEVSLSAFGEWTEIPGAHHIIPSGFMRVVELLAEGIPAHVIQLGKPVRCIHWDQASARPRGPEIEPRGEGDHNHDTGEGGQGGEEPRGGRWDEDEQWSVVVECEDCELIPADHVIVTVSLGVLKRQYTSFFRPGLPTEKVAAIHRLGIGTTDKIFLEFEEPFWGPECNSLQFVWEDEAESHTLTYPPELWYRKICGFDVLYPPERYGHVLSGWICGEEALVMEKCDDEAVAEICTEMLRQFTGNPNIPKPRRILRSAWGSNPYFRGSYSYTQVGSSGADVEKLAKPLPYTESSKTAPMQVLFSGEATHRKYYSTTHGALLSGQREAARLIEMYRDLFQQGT

Cc1cc([C@H](O)CNCCCNC(=N)N)cc(C)c1O [Compound 6]
Mechanism of inhibition (SMOX; Lineweaver–Burk analysis): competitive
Ki (SMOX; global fit for competitive inhibition, inhibitor 0, 0.1, 1 µM): 1.6 µM
inhibition at 20 µM (recombinant human MAO-A): -6 ± 2.1%
inhibition at 20 µM (recombinant human MAO-B): -13.7 ± 3.8%
